According to patent US9676754B2, “Triazolone compounds and uses thereof” (Inception 2, Inc., priority 2012, dated 2017):

biological target: T1, Human PPARα (Homo sapiens, UniProt Q07869); test: Human PPARα Reporter Assay (luciferase); format: cell-based; settings: antagonist activity, luciferase reporter cells, overnight incubation; read-out: Human PPARα Reporter Assay-Luciferase IC50
T1 construct: host or cells: proprietary non-human mammalian cells
T1 sequence (Q07869 1-468): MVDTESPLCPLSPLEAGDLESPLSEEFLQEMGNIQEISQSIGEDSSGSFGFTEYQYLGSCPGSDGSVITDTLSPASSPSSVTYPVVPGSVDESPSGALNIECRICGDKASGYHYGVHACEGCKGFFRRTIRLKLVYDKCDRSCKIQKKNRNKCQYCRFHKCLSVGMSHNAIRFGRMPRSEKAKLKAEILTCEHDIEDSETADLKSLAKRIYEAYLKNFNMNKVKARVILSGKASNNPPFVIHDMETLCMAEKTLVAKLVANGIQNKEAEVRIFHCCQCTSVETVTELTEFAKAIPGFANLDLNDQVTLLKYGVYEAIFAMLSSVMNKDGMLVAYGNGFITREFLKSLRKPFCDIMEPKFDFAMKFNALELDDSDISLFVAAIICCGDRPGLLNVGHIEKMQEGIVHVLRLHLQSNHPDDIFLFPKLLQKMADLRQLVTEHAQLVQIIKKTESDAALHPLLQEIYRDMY
Description: Human PPARα Reporter Assay
The screening of test compounds for agonist or antagonist activities against human PPARα receptors was performed using a commercial kit, Human PPARα Reporter Assay System (Indigo Biosciences, Cat. #IB00111).
This nuclear receptor assay system utilizes proprietary non-human mammalian cells engineered to provide constitutive, high-level expression of Human PPARα. Because these cells incorporate a PPARα-responsive luciferase reporter gene, quantifying expressed luciferase activity provides a sensitive surrogate measure of PPARα activity in the treated cells. The primary application of this reporter assay system is in the screening of test samples to quantify any functional activity, either agonist or antagonist, that they may exert against human PPARα. […] Briefly, the reporter cells are dispensed into wells of the assay plate and then immediately dosed with test compounds. Following an overnight incubation, the treatment media are discarded and Luciferase Detection Reagent (LDR) is added. The intensity of light emission from the ensuing luciferase reaction provides a sensitive measure that is directly proportional to the relative level of PPARα activation in the reporter cells.

SMILES	IC50 [nM]
CCOc1ccc(-c2cccc(CCCc3nn(Cc4ccc(C(C)(C)C)cc4)c(=O)n3CC)c2)cc1C(=O)O [Example 10, 3′-(3-(1-(4-(tert-Butyl)benzyl)-4-ethyl-5-oxo-4,5-dihydro-1H-1,2,4-triazol-3-yl)propyl)-4-ethoxy-[1,1′-biphenyl]-3-carboxylic acid]	211
CCn1c(CCCc2cccc(-c3ccc(OC)c(CCC(=O)O)c3)c2)nn(Cc2ccc(C(C)(C)C)cc2)c1=O [Example 21, 3-(3′-(3-(1-(4-(tert-Butyl)benzyl)-4-ethyl-5-oxo-4,5-dihydro-1H-1,2,4-triazol-3-yl)propyl)-4-methoxy-[1,1′-biphenyl]-3-yl)propanoic acid]	610
CCn1c(CCCc2cccc(-c3cccc(C4(C(=O)O)CC4)c3)c2)nn(Cc2ccc(C(C)(C)C)cc2)c1=O [Example 7, 1-(3′-(3-(1-(4-(tert-Butyl)benzyl)-4-ethyl-5-oxo-4,5-dihydro-1H-1,2,4-triazol-3-yl)propyl)-[1,1′-biphenyl]-3-yl)cyclopropanecarboxylic acid]	77
CCn1c(CCCc2cccc(-c3ccc(OC)c(CC(=O)O)c3)c2)nn(Cc2ccc(C(C)(C)C)cc2)c1=O [Example 13, 2-(3′-(3-(1-(4-(tert-Butyl)benzyl)-4-ethyl-5-oxo-4,5-dihydro-1H-1,2,4-triazol-3-yl)propyl)-4-methoxy-[1,1′-biphenyl]-3-yl)acetic acid]	197
